The text below walks through data of PubChem BioAssay AID602427 (Sanford-Burnham Center for Chemical Genomics, 2012).

The source made the active and inactive calls.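 Rule for the calls: active = EC50 at or below 20 micromolar; inactive = the rest.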 Bounds are passed on as bounds.

The target in the assay is Neurotensin receptor type 1 (Homo sapiens) (UniProt P30989). In words: NTSR1 activation via enzyme-fragment complementation – cell-based, luminescence, CHO-K1 NTSR1 PathHunter, orthogonal assay for NTR1 agonist project, SAR follow-up (AID 602427).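 Note: agonist potency for NTR1 activation where higher luminescence means more arrestin recruitment.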 Conditions: CHO-K1 NTSR1 PathHunter beta-arrestin.
Chain of Neurotensin receptor type 1 (Homo sapiens) (P30989 whole entry, looked up, the tested form may be a part): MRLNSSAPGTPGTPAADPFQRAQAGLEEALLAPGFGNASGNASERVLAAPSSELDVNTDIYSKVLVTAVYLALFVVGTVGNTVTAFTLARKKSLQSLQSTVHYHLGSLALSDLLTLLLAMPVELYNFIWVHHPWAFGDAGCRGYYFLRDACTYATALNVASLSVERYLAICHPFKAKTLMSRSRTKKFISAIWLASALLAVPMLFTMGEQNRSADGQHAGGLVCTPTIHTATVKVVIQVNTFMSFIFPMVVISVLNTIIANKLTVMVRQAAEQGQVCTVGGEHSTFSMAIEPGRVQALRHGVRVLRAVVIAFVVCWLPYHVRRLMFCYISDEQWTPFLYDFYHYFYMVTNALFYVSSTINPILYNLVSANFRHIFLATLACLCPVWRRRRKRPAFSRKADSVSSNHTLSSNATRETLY
Take `CCCSc1nc2cc(OC)c(OC)cc2c(=N)n1Cc1cccc(C(F)(F)F)c1`: the EC50 (commonly the midpoint of the concentration-response curve) was > 33 µM (inactive).

On to `CCn1cc(C(=O)c2ccc(OC)cc2)c(=O)c2ccccc21`, for which the EC50 is > 33 µM (inactive).

With `COc1ccccc1N1CCN(c2nc(C3CCC3)nc3ccccc23)CC1`, the EC50 was > 33 µM (inactive).

For `CCn1cc(C(=O)c2ccc(F)cc2)c(=O)c2cc(OC)c(OC)cc21`, the EC50 was > 33 µM (inactive).

On to `COc1ccccc1-c1nc(C(=O)N[C@@H](CC(C)C)C(=O)O)cn1-c1ccncc1`, for which the EC50 is > 33 µM (inactive).

As to `COc1cc2nc(Cc3ccccc3)nc(N3CCN(c4ccccc4OC)CC3)c2cc1OC`, the EC50 was > 33 µM (inactive).

For `COc1cc2nc(C3CCC3)nc(N3CCN(c4ccccc4)CC3)c2cc1OC`, the EC50 was > 33 µM (inactive).

Regarding `COc1ccc2c3nnc(-c4ccc(C)cc4)c-3cn(Cc3ccc(F)cc3)c2c1`, the EC50 is > 33 µM (inactive).

Take `COc1cc2c3nnc(-c4ccc(F)cc4)c-3cn(Cc3ccncc3)c2cc1OC`: the EC50 is > 33 µM (inactive).

Take `Clc1ccc(-n2ncc3c(N4CCN(c5ccccc5)CC4)ncnc32)cc1`: the EC50 is > 33 µM (inactive).

Regarding `COc1cc2c3nnc(-c4ccc(Cl)cc4)c-3cn(Cc3ccc(C)cc3)c2cc1OC`, the EC50 is > 33 µM (inactive).

For `CCc1ccc(-c2nnc3c4cc(OC)c(OC)cc4n(Cc4ccccc4)cc2-3)cc1`, the EC50 is > 33 µM (inactive).

On to `CCc1ccc(-c2nnc3c4cc(OC)c(OC)cc4n(Cc4ccc(F)cc4)cc2-3)cc1`, for which the EC50 is > 33 µM (inactive).

On to `COc1cccc(OC)c1-c1nc(C(=O)N[C@@H](CC(C)C)C(=O)O)cn1-c1cccc2ccccc12`, for which the EC50 was 6.08 µM.

With `Cc1ccc(Cn2cc3c(-c4ccc(C)cc4)nnc-3c3cc4c(cc32)OCO4)cc1`, the EC50 is > 33 µM (inactive).

Turning to `COc1ccc2c(N3CCN(c4ccccc4OC)CC3)nc(C3CCC3)nc2c1`, the EC50 was > 33 µM (inactive).

Regarding `COc1ccc(/C=N/Nc2nc(-c3ccc(S(=O)(=O)N(C)C)cc3)cs2)cc1OC`, the EC50 was > 33 µM (inactive).

As to `COc1ccc(C(=O)c2cn(Cc3ccc(N(C)C)cc3)c3ccccc3c2=O)cc1`, the EC50 was > 33 µM (inactive).

As to `Cc1ccc(Cn2cc3c(-c4ccc(Cl)cc4)nnc-3c3cc4c(cc32)OCO4)cc1`, the EC50 was > 33 µM (inactive).

`COc1cc2c3nnc(-c4ccc(F)cc4)c-3cn(Cc3ccc(OC(F)(F)F)cc3)c2cc1OC`: the EC50 was > 33 µM (inactive).

Turning to `COc1cccc(OC)c1-c1cc(C(=O)NC2(C(=O)O)C3CC4CC(C3)CC2C4)nn1-c1ccc(C(=O)N(C)CCCN(C)C)cc1C(C)C` (stereo not drawn), the EC50 is > 33 µM (inactive).

For `COc1ccc(-c2nnc3c4cc(OC)c(OC)cc4n(Cc4ccc(C)cc4)cc2-3)cc1`, the half-maximal effective concentration (EC50) was 15.5 µM.

Regarding `CCn1cc2c(-c3ccc(F)cc3)nnc-2c2cc(OC)c(OC)cc21`, the EC50 was > 33 µM (inactive).

Turning to `COc1cccc(OC)c1-c1nc(C(=O)N[C@@H](CC(C)C)C(=O)O)cn1-c1ccc(C)cc1`, the EC50 is > 33 µM (inactive).

Take `COc1ccc2c(c1)c1nnc(-c3ccc(F)cc3)c-1cn2Cc1ccccc1`: the EC50 is > 33 µM (inactive).

Turning to `COc1cccc(OC)c1-c1nc(C(=O)N[C@@H](CC(C)C)C(=O)O)cn1-c1ccnc2ccccc12`, the concentration giving a half-maximal response (EC50) was 18.2 µM.

With `Cc1ccc(-n2ncc3c(N4CCN(c5ccccc5Cl)CC4)ncnc32)c(C)c1`, the EC50 is > 33 µM (inactive).

With `Fc1ccc(-c2nnc3c4cc5c(cc4n(Cc4ccccc4)cc2-3)OCO5)cc1`, the EC50 is > 33 µM (inactive).

For the compound `Fc1ccc(Cn2cc3c(-c4ccc(F)cc4)nnc-3c3cc4c(cc32)OCO4)cc1`, the EC50 is > 33 µM (inactive).

Turning to `CC(=O)c1ccc(N2CCN(c3ncnc4c3cnn4-c3ccc(C)cc3C)CC2)cc1`, the EC50 was > 33 µM (inactive).

Take `COc1cccc2c(C(=O)N[C@@H](CC(C)C)C(=O)O)cn(-c3ccnc4cc(Cl)ccc34)c12`: the EC50 was > 33 µM (inactive).

Take `COc1cc2nc(-c3ccccc3)nc(N3CCN(c4ccccc4OC)CC3)c2cc1OC`: the EC50 was > 33 µM (inactive).

Regarding `COc1cc2c3nnc(-c4ccc(C)cc4)c-3cn(Cc3ccc(F)cc3)c2cc1OC`, the EC50 entry is “inactive”.

`c1ccc(Cn2cc3c(-c4ccccc4)nnc-3c3ccccc32)cc1`: the EC50 is > 33 µM (inactive).

As to `Fc1ccc(-n2ncc3c(N4CCN(c5ccccc5)CC4)ncnc32)cc1`, the EC50 is > 33 µM (inactive).

Take `COc1cc2c(=O)c(C(=O)c3ccc(F)cc3)cn(CC3CC3)c2cc1OC`: the EC50 was > 33 µM (inactive).

For `COc1ccc(Cn2cc(C(=O)c3ccc(F)cc3)c(=O)c3cc(OC)c(OC)cc32)cc1`, the EC50 is > 33 µM (inactive).

As for `CC(C)C[C@H](NC(=O)c1nc(-c2ccncc2)c(-c2ccccc2)s1)C(=O)O`, the EC50 is > 33 µM (inactive).

For the compound `COc1cccc(OC)c1-c1nc(C(=O)NC2(C(=O)O)C3CC4CC(C3)CC2C4)cn1-c1ccnc2cc(Cl)ccc12` (stereo not drawn), the EC50 is > 33 µM (inactive).

Take `COc1cc2c3nnc(-c4ccccc4)c-3cn(Cc3ccc(F)cc3)c2cc1OC`: the EC50 is > 33 µM (inactive).

As for `COc1cccc(OC)c1-c1nc(C(=O)N[C@@H](CC(C)C)C(=O)O)cn1-c1ccnc2cc(Cl)ccc12`, the EC50 is 6.1 µM.

Consider `Cc1ccc(C)c(-n2ncc3c(N4CCN(c5ccccc5)CC4)ncnc32)c1`, for which the EC50 is > 33 µM (inactive).

Regarding `COc1cc2nc(-c3ccccc3)nc(N3CCN(c4ccccc4F)CC3)c2cc1OC`, the EC50 is > 33 µM (inactive).

In the case of `COc1ccc(C(=O)c2cn(Cc3ccccc3)c3ccccc3c2=O)cc1`, the EC50 was > 33 µM (inactive).

Regarding `COc1cc2c3nnc(-c4ccc(F)cc4)c-3cn(Cc3ccccc3N(C)C)c2cc1OC`, the EC50 was > 33 µM (inactive).

With `COc1cc2nc(C3CCC3)nc(N3CCN(c4ccccc4C)CC3)c2cc1OC`, the EC50 was > 33 µM (inactive).

As to `COc1cc2c(=O)c(C(=O)c3ccc(F)cc3)cn(Cc3ccc(Cl)cc3)c2cc1OC`, the EC50 is > 33 µM (inactive).

Consider `CN(C)S(=O)(=O)c1ccc(-c2csc(N/N=C/c3ccc(C(C)(C)C)cc3)n2)cc1`, for which the EC50 is > 33 µM (inactive).

Take `COc1ccc(-c2nc(C(=O)N[C@@H](CC(C)C)C(=O)O)cn2-c2ccnc3cc(Cl)ccc23)c(OC)c1`: the EC50 is > 33 µM (inactive).

For the compound `COc1ccc(Cn2c(SCc3cccc(C(F)(F)F)c3)nc3cc(OC)c(OC)cc3c2=N)cc1Cl`, the EC50 was > 33 µM (inactive).

`COc1ccc(Cn2c(SCc3ccccc3C)nc3cc(OC)c(OC)cc3c2=N)cc1Cl`: the EC50 is > 33 µM (inactive).

On to `COc1cccc(OC)c1-c1cc(C(=O)N[C@@H](CC(C)C)C(=O)O)nn1-c1ccnc2cc(Cl)ccc12`, for which the EC50 is > 33 µM (inactive).

Take `CC(C)C[C@H](NC(=O)c1cn(-c2ccnc3cc(Cl)ccc23)c2ccccc12)C(=O)O`: the EC50 was > 33 µM (inactive).

As for `COc1cc2nc(C)nc(N3CCN(c4ccccc4OC)CC3)c2cc1OC`, the EC50 was > 33 µM (inactive).

In the case of `COc1cc2c3nnc(-c4ccc(F)cc4)c-3cn(Cc3cccc(N(C)C)c3)c2cc1OC`, the EC50 was > 33 µM (inactive).

Take `Cc1ccc(-n2ncc3c(N4CCN(c5ccc([N+](=O)[O-])cc5)CC4)ncnc32)c(C)c1`: the EC50 was > 33 µM (inactive).

For the compound `COc1cc2nc(C3CCC3)nc(N3CCN(c4ccccc4Cl)CC3)c2cc1OC`, the EC50 is > 33 µM (inactive).

As for `COc1ccc2c(c1)c1nnc(-c3ccc(F)cc3)c-1cn2Cc1ccc(C)cc1`, the EC50 was > 33 µM (inactive).

Regarding `COc1ccc(C(=O)c2cn(CC3CC3)c3ccccc3c2=O)cc1`, the EC50 was > 33 µM (inactive).

On to `COc1ccc(Cn2c(SCc3ccccc3)nc3cc(OC)c(OC)cc3c2=N)cc1Cl`, for which the EC50 is > 33 µM (inactive).

On to `COc1cc2c3nnc(-c4ccc(F)cc4)c-3cn(CCc3ccccc3)c2cc1OC`, for which the EC50 is > 33 µM (inactive).

For `Cc1ccc(Cn2cc3c(-c4ccc(C)c(C)c4)nnc-3c3cc4c(cc32)OCO4)cc1`, the EC50 is > 33 µM (inactive).

Consider `CC(C)C[C@H](NC(=O)c1cn(-c2ccnc3cc(Cl)ccc23)c(-c2ccccc2)n1)C(=O)O`, for which the EC50 was > 33 µM (inactive).

As to `CCCSc1nc2cc(OC)c(OC)cc2c(=N)n1Cc1ccccc1Cl`, the EC50 was > 33 µM (inactive).

In the case of `Cc1cccc(-n2ncc3c(N4CCN(c5ccccc5)CC4)ncnc32)c1`, the EC50 is > 33 µM (inactive).

Consider `COc1cccc(OC)c1-c1nc(C(=O)N[C@@H](CC(C)C)C(=O)O)cn1-c1ccncc1`, for which the EC50 is > 33 µM (inactive).

Take `CCOc1cc2nc(-c3ccc(OC)c(OC)c3)nc(N3CCN(c4ccccc4)CC3)c2cc1OC`: the EC50 is > 33 µM (inactive).

Take `Cc1cc(Cl)ccc1-n1ncc2c(N3CCN(c4ccccc4)CC3)ncnc21`: the EC50 was > 33 µM (inactive).

`COc1ccc(-c2nnc3c4ccccc4n(Cc4ccc(OC(F)(F)F)cc4)cc2-3)cc1`: the EC50 was > 33 µM (inactive).

On to `Cc1ccc(-n2ncc3c(N4CCN(c5ccccc5)CC4)ncnc32)cc1C`, for which the EC50 is > 33 µM (inactive).

For the compound `COc1cc2c(=O)c(C(=O)c3ccc(F)cc3)cn(CCc3ccccc3)c2cc1OC`, the EC50 is > 33 µM (inactive).

Consider `COc1ccc(Cn2cc3c(-c4ccc(F)cc4)nnc-3c3cc(OC)c(OC)cc32)cc1`, for which the EC50 was > 33 µM (inactive).

On to `CN(C)S(=O)(=O)c1ccc(-c2csc(N/N=C/c3cccs3)n2)cc1`, for which the EC50 was > 33 µM (inactive).

For `COc1cc2c3nnc(-c4ccc(F)cc4)c-3cn(Cc3ccccn3)c2cc1OC`, the EC50 is > 33 µM (inactive).

For the compound `O=S(=O)(c1ccc(-c2csc(N/N=C/c3ccco3)n2)cc1)N1CCCC1`, the EC50 was > 33 µM (inactive).

`Cc1ccc(-n2ncc3c(N4CCN(c5ccccc5)CC4)ncnc32)c(C)c1`: the EC50 is > 33 µM (inactive).

As for `COc1ccc(-c2nnc3c4ccccc4n(Cc4ccccc4)cc2-3)cc1`, the EC50 is > 33 µM (inactive).

For the compound `COc1ccc(-c2nnc3c4ccccc4n(Cc4ccc(F)cc4)cc2-3)cc1`, the EC50 was > 33 µM (inactive).
